Reference: US20070218483A1, “SITE-SPECIFIC INCORPORATION OF FLUORINATED AMINO ACIDS INTO PROTEINS” (FRANKLIN AND MARSHALL COLLEGE, priority 2006, published 2007)
Entries after “also recorded” stand apart in the source; their conditions may differ.

How the values were obtained:
HDH = test: Photo crosslinking of protein upon ultraviolet irradiation, SDS-PAGE; settings: amino acid incorporated in protein
Source text: The amino acid pBpa in a protein may be used to determine the structural organization of the protein and conformational changes by initiating crosslinking with nearby peptides via externally provided ultraviolet irradiation. […] The time course of HDH-225pBpa and HDH-225-dfBpa during irradiation was studied by SDS-PAGE.

pBpa MjTyrRS/tRNATyrCUA = molecular target: T1, pBpa MjTyrRS/tRNATyrCUA (Methanocaldococcus jannaschii, UniProt Q57834, D158T/E107P/I159S/Q56R/V103L/Y32G); test: Incorporation into protein in response to TAG codon with pBpa synthetase, SDS-PAGE; format: cell-based, Methanococcus jannaschii; settings: E. coli, amino acid added to the media, pBpa synthetase (SEQ ID NO: 7)
T1 construct: expressed in transfected cells; host or cells: E. coli carrying pDULE-pBpa
T1 sequence (Q57834 whole entry Y32G/Q56R/V103L/E107P/D158T/I159S): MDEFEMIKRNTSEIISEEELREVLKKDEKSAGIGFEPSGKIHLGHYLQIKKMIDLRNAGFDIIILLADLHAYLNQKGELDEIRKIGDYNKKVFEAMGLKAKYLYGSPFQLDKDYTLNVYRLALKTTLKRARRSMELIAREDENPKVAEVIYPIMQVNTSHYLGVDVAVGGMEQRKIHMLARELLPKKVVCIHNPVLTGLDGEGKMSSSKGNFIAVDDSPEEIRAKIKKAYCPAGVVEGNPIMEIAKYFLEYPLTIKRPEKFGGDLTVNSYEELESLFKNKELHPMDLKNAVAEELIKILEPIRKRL
Source text: Incorporation of additional ^19F amino acids with p-benzoyl-phenylalanine (pBpa) synthetase. Using a synthetase known to selectively incorporate pBpa (SEQ ID NO: 7), other ^19F amino acids of similar shape and electrostatics may be incorporated site-specifically into proteins.
Analysis of incorporation of p-fluorobenzoylphenylalanine into protein response to a TAG stop codon in E. coli with evolved pBpa MjTyrRS/tRNA TyrCUA by SDS-PAGE.
(§1) To improve the incorporation efficiency of dfBpa, the active site of pBpa MjTyrRS was altered to better accommodate the slightly larger dfBpa amino acid. Amino acids in the active site (Ser159, Leu65) were reduced in size or reduced in polarity to better accept dfBpa.
(§2) Analysis of fluorinated pBpa-protein by SDS-PAGE.

E. coli DH10B cells = settings: in vivo NMR cell samples
Experimental: Labeled NTR was also monitored in vivo.
E. coli DH10B cells containing pDule-tfmPhe1 and pTrc-NTR-124TAG or pTrc-NTR-36TAG were grown in modified minimal media containing supplemented flavin at 10 μM and induced to produce protein with 1.0 mM IPTG at an OD of 0.8. […] Cells were harvested 18 hrs after induction by centrifugation and stored at −80° C. Cells (from 0.5 L of media) for in vivo NMR measurements were thawed on ice, resuspended in 50 mL of PBS buffer (10 mM NaH2PO4, 140 mM NaCl pH 7.8) at 0° C., and repelleted by centrifugation at 5000 g. The cells for in vivo NMR spectra shown for NTR-tfmPhe-36 and NTR-tfmPhe-124 were washed 3 times and 5 times respectively.
NMR data were collected using a Varian Unity INOVA 500 MHz spectrometer fitted with a 5 mm broadband probe. The proton coil was tuned to fluorine frequency (470.114 MHz). Standard decoupling parameters were used with a 100,000 Hz spectral width, 9 μs pulse length (approximately 45°), 2.00 s acquisition time, and 1.00 s relaxation delay. A 10 Hz line broadening was applied and all spectra were recorded at 25±0.2° C. All spectra were locked and referenced to an internal standard containing 0.2% solution of 4-fluorotoluene in toluene-d8 (set at −120.771 ppm referenced from trifluorotoluene at −65.000 ppm). […]

[1] = test system: evolved tfmPhe MjTyrRS/tRNATyrCUA; test: Incorporation into protein in response to TAG codon with tfmPhe synthetase, SDS-PAGE; format: cell-based, Methanococcus jannaschii; settings: E. coli, amino acid added to the media
Source text: The two top performing synthetases were subcloned into the pDule vector (pDule-tfmPhe1 and pDule-tfmPhe2) for further analysis of a protein containing tfmPhe. The medium copy pDule plasmid is designed to contain both the tRNA^TyrCUA and new synthetase allowing a standard high copy protein expression plasmid for use in production of tfmPhe containing protein.
Selection of tfmPhe specific tRNA-aminoacyl synthetase. A library of tRNA-aminoacyl synthetases was encoded on a kanamycin (Kn) resistant plasmid, pBK-JM-Lib, under control of the constitutive E. coli GlnRS promoter and terminator. The library was transformed by electroporation into DH10B E. coli containing the tetracycline (Tet) resistant positive selection plasmid, pREP2/YC-JYCUA. The positive selection plasmid encodes a mutant tRNA^TyrCUA, an amber disrupted chloramphenicol acetyltransferase, and an amber disrupted T7 RNA polymerase that drives the production of green fluorescent protein. The first positive selection was performed in the presence of 1 mM tfmPhe, 70 μg/mL chloramphenicol (Cm), 50 μg/mL Kn, and 25 μg/mL Tet in a modified GMML media at 37° C. with 250 rpm shaking until the OD was >1.0. Plasmid DNA was extracted and pBK-JM-Lib was separated from pREP2/YC-JYCUA by agarose gel electrophoresis. […]

[2] = molecular target: T2, modified pBpa MjTyrRS/tRNATyrCUA (Methanocaldococcus jannaschii, UniProt Q57834, D158T/E107P/I159A/L65V/Q56R/V103L/Y32G); test: Incorporation into protein in response to TAG codon with modified pBpa synthetase (Ser159Ala, Leu65Val), SDS-PAGE; format: cell-based, Methanococcus jannaschii; settings: E. coli, modified pBpa synthetase (SEQ ID NO: 8), Ser159Ala and Leu65Val
T2 construct: expressed in transfected cells; host or cells: E. coli
T2 sequence (Q57834 whole entry Y32G/Q56R/L65V/V103L/E107P/D158T/I159A): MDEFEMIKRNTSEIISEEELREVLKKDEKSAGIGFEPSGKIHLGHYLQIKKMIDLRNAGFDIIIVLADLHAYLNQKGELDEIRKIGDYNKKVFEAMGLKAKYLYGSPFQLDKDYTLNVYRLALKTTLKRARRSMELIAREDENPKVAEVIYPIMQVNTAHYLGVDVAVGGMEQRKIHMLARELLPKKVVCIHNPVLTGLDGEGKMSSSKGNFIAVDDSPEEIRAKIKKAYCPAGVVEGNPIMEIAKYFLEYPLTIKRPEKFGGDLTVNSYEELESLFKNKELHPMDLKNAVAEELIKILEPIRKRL
Source text: as §1, §2

O=C(N[C@@H](Cc1ccc(F)cc1)C(=O)O)c1ccccc1 [compound 7, p-fluorobenzoylphenylalanine]
crosslinking upon irradiation (HDH): shown to crosslink upon irradiation
incorporation into protein in response to TAG codon (pBpa MjTyrRS/tRNATyrCUA): incorporated in the location coded by TAG
incorporation into protein in response to TAG codon (pBpa MjTyrRS/tRNATyrCUA; listed as pfBpa): full length HDH was produced containing pfBpa

O=C(O)c1cccnc1 [nicotinic acid]
cell permeability (E. coli DH10B cells): poor cell permeability

Cc1ccc(C[C@H](N)C(=O)O)cc1F [compound 4, 4-methyl-3-fluorophenylalanine]
incorporation into protein in response to TAG codon [1]: incorporated in the location coded by TAG; also recorded: full length HDH was produced containing 4

N[C@@H](Cc1ccc(C(=O)c2c(F)cccc2F)cc1)C(=O)O [compound 6, 2′,6′-difluoro-p-benzoylphenylalanine]
crosslinking upon irradiation (HDH): shown to crosslink upon irradiation
incorporation into protein in response to TAG codon (pBpa MjTyrRS/tRNATyrCUA): incorporated in the location coded by TAG; also recorded: less effectively than pBpa or 7
incorporation into protein in response to TAG codon (pBpa MjTyrRS/tRNATyrCUA; listed as dfBpa): full length HDH was produced containing dfBpa
incorporation into protein in response to TAG codon ([2]; listed as dfBpa): high efficiency; also recorded: length HDH was produced containing dfBpa

N[C@@H](Cc1ccc(C(=O)c2ccccc2)cc1)C(=O)O [pBpa, p-benzoyl-phenylalanine, reference compound]
incorporation into protein in response to TAG codon (pBpa MjTyrRS/tRNATyrCUA): full length HDH was produced containing pBpa
incorporation into protein in response to TAG codon [2]: high efficiency; also recorded: full length HDH was produced containing pBpa

NC(=O)C1=CN([C@@H]2O[C@H](COP(=O)(O)OP(=O)(O)OC[C@H]3O[C@@H](n4cnc5c(N)ncnc54)[C@H](O)[C@@H]3O)[C@@H](O)[C@H]2O)C=CC1 [NADH, reduced nicotinamide adenine dinucleotide]
cell permeability (E. coli DH10B cells): poor cell permeability
